Results published in patent publication US9204645B2, “Insecticidal aromatic amides” (BAYER INTELLECTUAL PROPERTY GMBH, priority 2011, dated 2015).
Read-outs that look alike come from different tables or passages of the source. Each block holds one compound with its values, some of them ahead of it.

Experiments:
[1] = logP determination by HPLC on a reversed-phase column (C18), EEC Directive 79/831 Annex V.A8; type: physicochemical; conditions: HPLC-MS, C18, acetonitrile (0.1% formic acid)/water (0.09% formic acid) gradient, read-out: log P
Description: HPLC-MS^a): mass (m/z)=462 […]. ^a) Note regarding the determination of the logP values and mass detection: The determination of the given logP values was carried out in accordance with EEC Directive 79/831 Annex V.A8 by HPLC (High Performance Liquid Chromatography) on a reversed-phase column (C18). Agilent 1100 LC system; 50*4.6 Zorbax Eclipse Plus C18 1.8 micron; mobile phase A: acetonitrile (0.1% formic acid); mobile phase B: water (0.09% formic acid); linear gradient from 10% acetonitrile to 95% acetonitrile in 4.25 min, then 95% acetonitrile for a further 1.25 min; oven temperature 55° C.; flow rate: 2.0 ml/min Mass detection is via an Agilent MSD system.
The calibration is carried out using unbranched alkan-2-ones (having 3 to 16 carbon atoms) with known logP values (determination of the logP values by the retention times using linear interpolation between two successive alkanones). The lambda-maX values were determined in the maxima of the chromatographic signals using the UV spectra from 200 nm to 400 nm.

[2] = system: larvae of the mustard beetle (Phaedon cochleariae); assay: Phaedon cochleariae spray test (PHAECO); type: in vivo; conditions: for inhibition at 20 g/ha / inhibition at 100 g/ha: Phaedon cochleariae, 168 h; for inhibition at 20 g/ha: read-out: % Activity; for efficacy compared to similar compounds of the prior art: PHAECO spray test
Description: Phaedon Cochleariae—Spray Test (PHAECO)
(§1) • Solvents: 78.0 parts by weight of acetone • 1.5 parts by weight of dimethylformamide • Emulsifier: 0.5 part by weight of alkylaryl polyglycol ether
(§2) To produce a suitable preparation of active compound, 1 part by weight of active compound is mixed with the stated amounts of solvents and emulsifier, and the concentrate is diluted with emulsifier-containing water to the desired concentration.
After the desired period of time, the effect in % is determined 100% means that all of the beetle larvae have been killed; 0% means that none of the beetle larvae have been killed.

[3] = system: green peach aphid (Myzus persicae); assay: Myzus spray test (MYZUPE); type: in vivo; conditions: for inhibition at 20 g/ha / inhibition at 100 g/ha / inhibition at 500 g/ha: Myzus persicae, 144 h; for inhibition at 20 g/ha / inhibition at 100 g/ha: read-out: % Activity; for efficacy compared to similar compounds of the prior art: MYZUPE spray test
Description: Myzus—Spray Test (MYZUPE)
as §1, §2
Discs of Chinese cabbage leaves (Brassica pekinensis) infested by all stages of the green peach aphid (Myzus persicae) are sprayed with an active compound preparation of the desired concentration.
After the desired period of time, the effect in % is determined. 100% here means that all of the aphids have been killed; 0% means that no aphids have been killed.

[4] = system: greenhouse red spider mite (Tetranychus urticae); assay: Tetranychus urticae spray test, OP-resistant (TETRUR), bean leaf discs; type: in vivo; conditions: for inhibition at 500 g/ha / inhibition at 100 g/ha: Tetranychus urticae, foliar, 144 h, read-out: % Activity; for efficacy compared to similar compounds of the prior art: TETRUR spray test, leaf discs
Description: Tetranychus urticae—Spray Test; OP-resistant (TETRUR)
as §1, §2
Discs of bean leaves (Phaseolus vulgaris) which are infested by all stages of the greenhouse red spider mite (Tetranychus urticae) are sprayed with an active compound preparation of the desired concentration.
After the desired period of time, the effect in % is determined. 100% means that all of the spider mites have been killed; 0% means that none of the spider mites have been killed.

[5] = system: caterpillars of the armyworm (Spodoptera frugiperda); assay: Spodoptera frugiperda spray test (SPODFR); type: in vivo; conditions: 168 h, 7 dat
Description: Spodoptera frugiperda—Spray Test (SPODFR)
as §2, with “• Solvents: 78.0 parts by weight of acetone • 1.5 parts by weight of dimethylformamide • Emulsifier: 0.5 part by weight of alkylaryl polyglycol ether • To” for “To”
Leaf discs of maize (Zea mays) are sprayed with an active compound preparation of the desired concentration and, after drying, populated with caterpillars of the armyworm (Spodoptera frugiperda).
After the desired period of time, the effect in % is determined. 100% means that all of the caterpillars have been killed; 0% means that none of the caterpillars have been killed.

- chromatographic logP [1]: 1.41
SMILES: Cn1nc(C(F)(F)C(F)(F)F)c([N+](=O)[O-])c1C(=O)O [1-Methyl-4-nitro-3-(pentafluoroethyl)-1H-pyrazole-5-carboxylic acid]

- chromatographic logP [1]: 3.55
SMILES: CCC(=O)NC(C)c1cc(NC(=O)c2c(C(F)(F)F)c(C(F)(F)C(F)(F)F)nn2C)ccc1Cl (stereo not shown) [Am-28, N-{4-chloro-3-[1-(propionylamino)ethyl]phenyl}-1-methyl-3-(pentafluoroethyl)-4-(trifluoromethyl)-1H-pyrazole-5-carboxamide]

- chromatographic logP [1]: 3.7
SMILES: CCCC(=O)NCc1cc(NC(=O)c2c(C(F)(F)F)c(C(F)(F)C(F)(F)F)nn2C)ccc1Cl [Am-41, N-{3-[(butyrylamino)methyl]-4-chlorophenyl}-1-methyl-3-(pentafluoroethyl)-4-(trifluoromethyl)-1H-pyrazole-5-carboxamide]

SMILES: CCC(=O)NCc1cc(N(C)C(=O)c2c(C(F)(F)F)c(C(F)(F)C(F)(F)F)nn2C)ccc1F [Example 1]
- inhibition at 20 g/ha [2]: 100%
- inhibition at 20 g/ha [3]: 90%
- inhibition at 500 g/ha [4]: 100%

SMILES: CCN(C(=O)c1c(C(F)(F)F)c(C(F)(F)C(F)(F)F)nn1C)c1ccc(F)c(CNC(=O)C2CC2)c1 [Example 2]
- efficacy compared to similar compounds of the prior art [3]: superior efficacy
- inhibition at 100 g/ha [3]: 90%
- efficacy compared to similar compounds of the prior art [4]: superior efficacy
- inhibition at 100 g/ha [4]: 100%

SMILES: CCC(=O)NCc1cc(N(CC)C(=O)c2c(C(F)(F)F)c(C(F)(F)C(F)(F)F)nn2C)ccc1F [Example 3]
- efficacy compared to similar compounds of the prior art [2]: superior efficacy
- inhibition at 20 g/ha ([2]; PHAECO, 20 g/ha, 7 dat): 100%
- efficacy compared to similar compounds of the prior art [3]: superior efficacy
- inhibition at 20 g/ha ([3]; MYZUPE, 20 g/ha, 6 dat): 100%
- efficacy compared to similar compounds of the prior art [4]: superior efficacy
- inhibition at 500 g/ha ([4]; TETRUR, 500 g/ha, 6 dat): 100%

SMILES: CCC(=O)NCc1cc(NC(=O)c2c(C(F)(F)F)c(C(F)(F)C(F)(F)F)nn2C)ccc1F [Example 4]
- efficacy compared to similar compounds of the prior art [2]: superior efficacy
- inhibition at 20 g/ha ([2]; PHAECO, 20 g/ha, 7 dat): 100%
- efficacy compared to similar compounds of the prior art [3]: superior efficacy
- inhibition at 500 g/ha ([3]; MYZUPE, 6 dat): 100%
- efficacy compared to similar compounds of the prior art [4]: superior efficacy
- inhibition at 500 g/ha ([4]; TETRUR, 500 g/ha, 6 dat): 100%

SMILES: CCC(=O)NCc1c(F)ccc(NC(=O)c2c(C(F)(F)F)c(C(F)(F)C(F)(F)F)nn2C)c1F [Example 6]
- efficacy compared to similar compounds of the prior art [2]: superior efficacy
- inhibition at 100 g/ha ([2]; PHAECO, 7 dat): 100%
- inhibition at 100 g/ha [5]: 100%

- chromatographic logP [1]: 2.85
SMILES: CC(=O)NCc1c(F)ccc(N(C)C(=O)c2c(C(F)(F)F)c(C(F)(F)C(F)(F)F)nn2C)c1F [Example 7, N-[3-(acetamidomethyl)-2,4-difluorophenyl]-N,1-dimethyl-3-(pentafluoroethyl)-4-(trifluoromethyl)-1H-pyrazole-5-carboxamide]
- inhibition at 100 g/ha ([2]; PHAECO, 7 dat): 100%
- inhibition at 500 g/ha ([3]; MYZUPE, 6 dat): 100%
- inhibition at 500 g/ha ([4]; TETRUR, 500 g/ha, 6 dat): 100%

SMILES: CC(=O)NCc1cc(N(C)C(=O)c2c(C(F)(F)F)c(C(F)(F)C(F)(F)F)nn2C)ccc1F [Example 8]
- inhibition at 500 g/ha ([3]; MYZUPE, 6 dat): 100%
- inhibition at 500 g/ha ([4]; TETRUR, 500 g/ha, 6 dat): 100%

SMILES: CCN(C(=O)c1c(C(F)(F)F)c(C(F)(F)C(F)(F)F)nn1C)c1ccc(F)c(CNC(C)=O)c1 [Example 9]
- efficacy compared to similar compounds of the prior art [3]: superior efficacy
- inhibition at 20 g/ha ([3]; MYZUPE, 20 g/ha, 6 dat): 100%
- efficacy compared to similar compounds of the prior art [4]: superior efficacy
- inhibition at 500 g/ha ([4]; TETRUR, 500 g/ha, 6 dat): 100%

SMILES: CN(C(=O)c1c(C(F)(F)F)c(C(F)(F)C(F)(F)F)nn1C)c1cccc(CNC(=O)C2CC2)c1 [Example 10]
- inhibition at 100 g/ha ([3]; MYZUPE, 100 g/ha, 6 dat): 100%
- inhibition at 500 g/ha ([4]; TETRUR, 500 g/ha, 6 dat): 100%

SMILES: CC(=O)NCc1c(F)ccc(NC(=O)c2c(C(F)(F)F)c(C(F)(F)C(F)(F)F)nn2C)c1F [Example 11]
- inhibition at 100 g/ha ([2]; PHAECO, 7 dat): 100%
- inhibition at 500 g/ha ([4]; TETRUR, 500 g/ha, 6 dat): 90%

SMILES: CCC(=O)NCc1cc(NC(=O)c2c(C(F)(F)F)c(C(F)(F)F)nn2C)ccc1F [Example 201]
- efficacy compared to similar compounds of the prior art [3]: superior efficacy
- inhibition at 20 g/ha ([3]; MYZUPE, 20 g/ha, 6 dat): 100%
- efficacy compared to similar compounds of the prior art [4]: superior efficacy
- inhibition at 100 g/ha ([4]; TETRUR, 100 g/ha, 6 dat): 100%
